# Test system: Avena fatua (AVEFA)
# Assay: Example A post-emergence herbicidal activity, glasshouse pot test
# Assay type: in vivo
# Conditions: 360 h, rate 125 g/ha, evaluated 15 days after spraying, read-out: Post-emergence activity AVEFA (100=total damage to plant; 0=no damage to plant)
# Description: (§1) Seeds of a variety of test species were sown in standard soil in pots. After cultivation for one day (pre-emergence) or after 10 days cultivation (post-emergence) under controlled conditions in a glasshouse, the plants were sprayed with an aqueous spray solution derived from the formulation of the technical active ingredient in 0.6 ml acetone and 45 ml formulation solution containing 10.6% Emulsogen EL (Registry number 61791-12-6), 42.2% N-methylpyrrolidone, 42.2% dipropylene glycol monomethyl ether (Registry number 34590-94-8) and 0.2% X-77 (Registry number 11097-66-8). The test plants were then grown in a greenhouse under optimum conditions until, 15 days later for post-emergence and 20 days for pre-emergence, the test was evaluated (100=total damage to plant; 0=no damage to plant).
# (§2) Alopecurus myosuroides (ALOMY), Avena fatua (AVEFA), Lolium perenne (LOLPE), Setaria faberi (SETFA), Digitaria sanguinalis (DIGSA), Echinochloa crus-galli (ECHCG)
row,Structure (SMILES),pest or weed control at 125 g/ha
1,CCc1ccc(-c2ccc(Cl)cc2)cc1C1=C(O)C(C)(CC)OC(C)(CC)C1=O (stereo not drawn) [Compound A-35],50%
2,CCc1ccc(-c2ccc(Cl)cc2)cc1C1=C(O)C2(CCCC2)OCC1=O [Compound A-36],0%
3,Cc1ccc(-c2ccc(Cl)cc2)cc1C1=C(O)[C@@]2(C)CC[C@](C)(O2)C1=O [Compound A-40],60%

# Test system: Lolium perenne (LOLPE)
# Assay: as above
# Assay type: in vivo
# Conditions: 360 h, rate 125 g/ha, evaluated 15 days after spraying, read-out: Post-emergence activity LOLPE (100=total damage to plant; 0=no damage to plant)
# Description: as §1, §2
row,Structure (SMILES),pest or weed control at 125 g/ha
1,CCc1ccc(-c2ccc(Cl)cc2)cc1C1=C(O)C(C)(CC)OC(C)(CC)C1=O (stereo not drawn) [Compound A-35],70%
2,CCc1ccc(-c2ccc(Cl)cc2)cc1C1=C(O)C2(CCCC2)OCC1=O [Compound A-36],70%
3,Cc1ccc(-c2ccc(Cl)cc2)cc1C1=C(O)[C@@]2(C)CC[C@](C)(O2)C1=O [Compound A-40],60%

# Test system: Digitaria sanguinalis (DIGSA)
# Assay: as above
# Assay type: in vivo
# Conditions: 360 h, rate 125 g/ha, evaluated 15 days after spraying, read-out: Post-emergence activity DIGSA (100=total damage to plant; 0=no damage to plant)
# Description: as §1, §2
row,Structure (SMILES),pest or weed control at 125 g/ha
1,CCc1ccc(-c2ccc(Cl)cc2)cc1C1=C(O)C(C)(CC)OC(C)(CC)C1=O (stereo not drawn) [Compound A-35],80%
2,CCc1ccc(-c2ccc(Cl)cc2)cc1C1=C(O)C2(CCCC2)OCC1=O [Compound A-36],70%
3,Cc1ccc(-c2ccc(Cl)cc2)cc1C1=C(O)[C@@]2(C)CC[C@](C)(O2)C1=O [Compound A-40],70%

# Test system: Echinochloa crus-galli (ECHCG)
# Assay: as above
# Assay type: in vivo
# Conditions: 360 h, rate 125 g/ha, evaluated 15 days after spraying, read-out: Post-emergence activity ECHCG (100=total damage to plant; 0=no damage to plant)
# Description: as §1, §2
row,Structure (SMILES),pest or weed control at 125 g/ha
1,CCc1ccc(-c2ccc(Cl)cc2)cc1C1=C(O)C(C)(CC)OC(C)(CC)C1=O (stereo not drawn) [Compound A-35],100%
2,CCc1ccc(-c2ccc(Cl)cc2)cc1C1=C(O)C2(CCCC2)OCC1=O [Compound A-36],70%
3,Cc1ccc(-c2ccc(Cl)cc2)cc1C1=C(O)[C@@]2(C)CC[C@](C)(O2)C1=O [Compound A-40],100%

# Test system: Alopecurus myosuroides (ALOMY)
# Assay: as above
# Assay type: in vivo
# Conditions: 360 h, rate 125 g/ha, evaluated 15 days after spraying, read-out: Post-emergence activity ALOMY (100=total damage to plant; 0=no damage to plant)
# Description: as §1, §2
row,Structure (SMILES),pest or weed control at 125 g/ha
1,CCc1ccc(-c2ccc(Cl)cc2)cc1C1=C(O)C(C)(CC)OC(C)(CC)C1=O (stereo not drawn) [Compound A-35],80%
2,CCc1ccc(-c2ccc(Cl)cc2)cc1C1=C(O)C2(CCCC2)OCC1=O [Compound A-36],40%
3,Cc1ccc(-c2ccc(Cl)cc2)cc1C1=C(O)[C@@]2(C)CC[C@](C)(O2)C1=O [Compound A-40],70%

# Test system: Setaria faberi (SETFA)
# Assay: as above
# Assay type: in vivo
# Conditions: 360 h, rate 125 g/ha, evaluated 15 days after spraying, read-out: Post-emergence activity SETFA (100=total damage to plant; 0=no damage to plant)
# Description: as §1, §2
row,Structure (SMILES),pest or weed control at 125 g/ha
1,CCc1ccc(-c2ccc(Cl)cc2)cc1C1=C(O)C(C)(CC)OC(C)(CC)C1=O (stereo not drawn) [Compound A-35],80%
2,CCc1ccc(-c2ccc(Cl)cc2)cc1C1=C(O)C2(CCCC2)OCC1=O [Compound A-36],60%
3,Cc1ccc(-c2ccc(Cl)cc2)cc1C1=C(O)[C@@]2(C)CC[C@](C)(O2)C1=O [Compound A-40],70%

# Test system: Avena fatua (AVEFA)
# Assay: Example A pre-emergence herbicidal activity, glasshouse pot test
# Assay type: in vivo
# Conditions: 480 h, rate 250 g/ha, evaluated 20 days after spraying, read-out: Pre-emergence activity AVEFA (100=total damage to plant; 0=no damage to plant)
# Description: as §1, §2
row,Structure (SMILES),pest or weed control at 250 g/ha
1,CCc1ccc(-c2ccc(Cl)cc2)cc1C1=C(O)C(C)(CC)OC(C)(CC)C1=O (stereo not drawn) [Compound A-35],70%
2,CCc1ccc(-c2ccc(Cl)cc2)cc1C1=C(O)C2(CCCC2)OCC1=O [Compound A-36],60%
3,Cc1ccc(-c2ccc(Cl)cc2)cc1C1=C(O)[C@@]2(C)CC[C@](C)(O2)C1=O [Compound A-40],10%

# Test system: Lolium perenne (LOLPE)
# Assay: as above
# Assay type: in vivo
# Conditions: 480 h, rate 250 g/ha, evaluated 20 days after spraying, read-out: Pre-emergence activity LOLPE (100=total damage to plant; 0=no damage to plant)
# Description: as §1, §2
row,Structure (SMILES),pest or weed control at 250 g/ha
1,CCc1ccc(-c2ccc(Cl)cc2)cc1C1=C(O)C(C)(CC)OC(C)(CC)C1=O (stereo not drawn) [Compound A-35],80%
2,CCc1ccc(-c2ccc(Cl)cc2)cc1C1=C(O)C2(CCCC2)OCC1=O [Compound A-36],80%
3,Cc1ccc(-c2ccc(Cl)cc2)cc1C1=C(O)[C@@]2(C)CC[C@](C)(O2)C1=O [Compound A-40],20%

# Test system: Digitaria sanguinalis (DIGSA)
# Assay: as above
# Assay type: in vivo
# Conditions: 480 h, rate 250 g/ha, evaluated 20 days after spraying, read-out: Pre-emergence activity DIGSA (100=total damage to plant; 0=no damage to plant)
# Description: as §1, §2
row,Structure (SMILES),pest or weed control at 250 g/ha
1,CCc1ccc(-c2ccc(Cl)cc2)cc1C1=C(O)C(C)(CC)OC(C)(CC)C1=O (stereo not drawn) [Compound A-35],80%
2,CCc1ccc(-c2ccc(Cl)cc2)cc1C1=C(O)C2(CCCC2)OCC1=O [Compound A-36],100%
3,Cc1ccc(-c2ccc(Cl)cc2)cc1C1=C(O)[C@@]2(C)CC[C@](C)(O2)C1=O [Compound A-40],70%

# Test system: Echinochloa crus-galli (ECHCG)
# Assay: as above
# Assay type: in vivo
# Conditions: 480 h, rate 250 g/ha, evaluated 20 days after spraying, read-out: Pre-emergence activity ECHCG (100=total damage to plant; 0=no damage to plant)
# Description: as §1, §2
row,Structure (SMILES),pest or weed control at 250 g/ha
1,CCc1ccc(-c2ccc(Cl)cc2)cc1C1=C(O)C(C)(CC)OC(C)(CC)C1=O (stereo not drawn) [Compound A-35],100%
2,CCc1ccc(-c2ccc(Cl)cc2)cc1C1=C(O)C2(CCCC2)OCC1=O [Compound A-36],100%
3,Cc1ccc(-c2ccc(Cl)cc2)cc1C1=C(O)[C@@]2(C)CC[C@](C)(O2)C1=O [Compound A-40],70%

# Test system: Alopecurus myosuroides (ALOMY)
# Assay: as above
# Assay type: in vivo
# Conditions: 480 h, rate 250 g/ha, evaluated 20 days after spraying, read-out: Pre-emergence activity ALOMY (100=total damage to plant; 0=no damage to plant)
# Description: as §1, §2
row,Structure (SMILES),pest or weed control at 250 g/ha
1,CCc1ccc(-c2ccc(Cl)cc2)cc1C1=C(O)C(C)(CC)OC(C)(CC)C1=O (stereo not drawn) [Compound A-35],70%
2,CCc1ccc(-c2ccc(Cl)cc2)cc1C1=C(O)C2(CCCC2)OCC1=O [Compound A-36],60%
3,Cc1ccc(-c2ccc(Cl)cc2)cc1C1=C(O)[C@@]2(C)CC[C@](C)(O2)C1=O [Compound A-40],30%

# Test system: Setaria faberi (SETFA)
# Assay: as above
# Assay type: in vivo
# Conditions: 480 h, rate 250 g/ha, evaluated 20 days after spraying, read-out: Pre-emergence activity SETFA (100=total damage to plant; 0=no damage to plant)
# Description: as §1, §2
row,Structure (SMILES),pest or weed control at 250 g/ha
1,CCc1ccc(-c2ccc(Cl)cc2)cc1C1=C(O)C(C)(CC)OC(C)(CC)C1=O (stereo not drawn) [Compound A-35],100%
2,CCc1ccc(-c2ccc(Cl)cc2)cc1C1=C(O)C2(CCCC2)OCC1=O [Compound A-36],90%
3,Cc1ccc(-c2ccc(Cl)cc2)cc1C1=C(O)[C@@]2(C)CC[C@](C)(O2)C1=O [Compound A-40],70%
